Experimental findings from patent US20040006236A1, “Diaminopropionic acid derivatives” (priority 1999, published 2004) are described below.

In assay [1] the target is T1, ICAM-1 binding to immobilized Mac-1 (Homo sapiens, UniProt P05107+P11215).
T1 construct: made in house; host or cells: transfected 293 cells (Mac-1)
The assay can be described thus: Mac-1/ICAM-1 screening assay (solid-phase ELISA). Conditions: read-out: Mac-1/ICAM-1 Protein-Protein Assay IC50. An outline of the steps:
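Competitive solid-phase ELISA: membrane Mac-1 from transfected 293 cells coated at 3 μg/mL in 20 mM Hepes pH 7.2/0.14 M NaCl/1 mM MnCl2; compounds (0.12 nM-20 μM, 1:4 series) plus 5dICAM-Ig (40 μg/mL, added) 2 h at 37° C. Bound ICAM-Ig detected with HRP anti-human IgG Fc, TMB, A450; IC50 reported.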
(In general: An ELISA detects its analyte on a solid surface through an enzyme-linked reagent.)

In assay [2] the test system is T lymphocyte proliferation (C57BI/6 spleen cells with irradiated BALB/c spleen cells). The assay can be described thus: Mixed lymphocyte reaction (MLR), one-way. It counts as cell-based, mice. To be noted: Mus musculus, T-lymphocyte; read-out: MLR IC50. An outline of the steps: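 One-way murine MLR: C57BI/6 responder splenocytes proliferate against irradiated BALB/c stimulators while exposed to serially diluted antagonists in supplemented RPMI1640 for 3 days. Proliferation read as [3H]-thymidine uptake over a final 6 h pulse (0.5 μCi/well), scintillation counted.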

T1 sequence (P05107 23-769, other chains not shown): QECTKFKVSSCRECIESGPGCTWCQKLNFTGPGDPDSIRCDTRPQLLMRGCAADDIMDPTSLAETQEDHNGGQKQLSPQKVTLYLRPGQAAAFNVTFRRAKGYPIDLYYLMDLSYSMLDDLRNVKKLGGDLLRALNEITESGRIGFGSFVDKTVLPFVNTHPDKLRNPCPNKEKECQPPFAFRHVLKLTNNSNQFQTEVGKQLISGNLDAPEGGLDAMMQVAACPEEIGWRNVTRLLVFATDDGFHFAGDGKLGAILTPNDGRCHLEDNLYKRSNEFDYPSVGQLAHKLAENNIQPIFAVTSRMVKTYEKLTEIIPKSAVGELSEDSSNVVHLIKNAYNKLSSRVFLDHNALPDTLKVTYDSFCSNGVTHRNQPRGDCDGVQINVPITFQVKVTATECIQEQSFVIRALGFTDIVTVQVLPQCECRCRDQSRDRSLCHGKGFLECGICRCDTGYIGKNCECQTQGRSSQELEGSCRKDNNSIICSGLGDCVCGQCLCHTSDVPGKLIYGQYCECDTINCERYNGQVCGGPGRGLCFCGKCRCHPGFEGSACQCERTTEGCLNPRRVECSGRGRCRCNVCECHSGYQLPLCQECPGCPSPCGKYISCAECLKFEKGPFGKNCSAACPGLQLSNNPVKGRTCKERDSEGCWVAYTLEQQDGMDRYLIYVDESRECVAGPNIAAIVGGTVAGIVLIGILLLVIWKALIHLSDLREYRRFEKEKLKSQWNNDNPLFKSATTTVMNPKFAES

`O=C(CC1CCCC1)NC[C@H](NC(=O)c1ccc(C(=O)NCc2cccc(O)c2)cc1Cl)C(=O)O` [Example 77]: the IC50 came to 25 nM in assay [1] and 700 nM in assay [2].
